We go through 6 molecules from patent publication EP0263903A1, “Method for preparing specific inhibitors of virus-specified proteases” (priority 1986, dated 1988).

Where two headings read alike, the source gives them in different places. Residues, ends and D or L forms follow the SMILES beside them. *: point of attachment. Cbz = O=C(OCc1ccccc1)*; CH2Cl = ClC*

Series [1] relates to poliovirus type 2. The class given is cell-based, human poliomyelitisvirus type 2.
In series [2] the test system is rhinovirus type 1A. The format is cell-based, human rhinovirus type 1A.
Series [3] relates to poliovirus type 2. The class given is cell-based.
Series [4] relates to rhinovirus type 1A. Nature of the series: Plaque inhibition assay. The class given is cell-based, Human rhinovirus type 1A.
A further series deals with chymotrypsin. The settings on record: inhibitor concentration of 600 µg/mL; cited from earlier work.
A further series relates to subtilisin BPNʹ. The settings on record: series of peptide chloromethyl ketones; cited from earlier work.

Regarding `CC(=O)[C@H](CC(C)C)NC(=O)[C@H](C)NC(=O)CNC(=O)[C@H](Cc1ccccc1)NC(=O)OC(C)(C)C` [Boc-Phe-Gly-Ala-LeuCH₃], the “activity in the viral cleavage assay” value in the series with poliovirus type 2 [1] and with rhinovirus type 1A [2] was “failed to show activity” each time.
Regarding `COC(=O)CCC(=O)N[C@@H](Cc1ccccc1)C(=O)NCC(=O)N[C@@H](CC(C)C)C(=O)N[C@@H](CC(C)C)C(C)=O` [MeOSuc-Phe-Gly-Leu-LeuCH₃], the “activity in the viral cleavage assay” value with poliovirus type 2 [1] (50 µg/mL) is on record as “active”.
In the case of `CC(=O)[C@H](CC(C)C)NC(=O)[C@H](C)NC(=O)CNC(=O)[C@H](Cc1ccccc1)NC(=O)OCc1ccccc1` [Z-Phe-Gly-Ala-LeuCH₃], the “No cytotoxicity observed at concentrations up to” value in the series with human HeLa-O cells is recorded as more than 1 mg/mL. Moreover, the “activity in the viral cleavage assay” value in the series on poliovirus type 2 [1] (50 µg/mL) is “active”. Moreover, the plaque reduction in the series with poliovirus type 2 [3] is more than 90%; in the series on rhinovirus type 1A [4] (50 µg/mL in agar overlays, compared to control plates), more than 90%.
Take `CC(C)C[C@H](NC(=O)[C@H](CC(C)C)NC(=O)CNC(=O)[C@H](Cc1ccccc1)NC(=O)OCc1ccccc1)C(=O)CCl` [Z-Phe-Gly-Leu-LeuCH₂Cl] (Cbz-FGLL-CH2Cl): the “cytotoxicity first detected at a concentration of” value with human HeLa-O cells was “about 15 µg/mL”. In addition, the “Antiviral activity, as scored by 90% plaque reduction, noted at” value in the series on rhinovirus type 1A [4] (HeLa cells) is on record as 1 µg/mL.
With Ac-Leu-Leu-PheCH₃, the inhibition of chymotrypsin result with chymotrypsin is on record as “no inhibition was observed”.
As to “acetyl-L-phenylalanyl-L-glycyl-L-alanyl-L-leucyl chloromethyl ketone (Ac-FGAL-CH2Cl; SMILES CC(=O)N[C@@H](Cc1ccccc1)C(=O)NCC(=O)N[C@@H](C)C(=O)N[C@@H](CC(C)C)C(=O)CCl) [Ac-Phe-Gly-Ala-LeuCH₂Cl]”, the “inhibition of subtilisin BPNʹ (rate ranking among the compounds tested)” value in the series with subtilisin BPNʹ is reported as “fastest inhibitor”.
